Several values for one entry are separate records, joined by “and”; a condition that tells them apart may be missing. Equal entries are not always repeated. Non-standard residues stand in square brackets, D forms with d. Residues, ends and D or L forms follow the SMILES beside them. *: point of attachment. Tyr(3-Cl) = N[C@@H](Cc1ccc(O)c(Cl)c1)C(=O)O; Benzoyl(3,5-Cl2) = O=C(c1cc(Cl)cc(Cl)c1)*; Lys(Et2) = CCN(CC)CCCC[C@H](N)C(=O)O; Gly(cPent) = N[C@H](C(=O)O)C1CCCC1; Cbz = O=C(OCc1ccccc1)*; NH(propargyl) = C#CCN*; CH2Cl = ClC*; CH2F = FC*
Legend:
[1] = target: T1, Peregrin (Homo sapiens) (UniProt P55201); conditions: Compound concentration 20.0 uM
T1 sequence (whole entry): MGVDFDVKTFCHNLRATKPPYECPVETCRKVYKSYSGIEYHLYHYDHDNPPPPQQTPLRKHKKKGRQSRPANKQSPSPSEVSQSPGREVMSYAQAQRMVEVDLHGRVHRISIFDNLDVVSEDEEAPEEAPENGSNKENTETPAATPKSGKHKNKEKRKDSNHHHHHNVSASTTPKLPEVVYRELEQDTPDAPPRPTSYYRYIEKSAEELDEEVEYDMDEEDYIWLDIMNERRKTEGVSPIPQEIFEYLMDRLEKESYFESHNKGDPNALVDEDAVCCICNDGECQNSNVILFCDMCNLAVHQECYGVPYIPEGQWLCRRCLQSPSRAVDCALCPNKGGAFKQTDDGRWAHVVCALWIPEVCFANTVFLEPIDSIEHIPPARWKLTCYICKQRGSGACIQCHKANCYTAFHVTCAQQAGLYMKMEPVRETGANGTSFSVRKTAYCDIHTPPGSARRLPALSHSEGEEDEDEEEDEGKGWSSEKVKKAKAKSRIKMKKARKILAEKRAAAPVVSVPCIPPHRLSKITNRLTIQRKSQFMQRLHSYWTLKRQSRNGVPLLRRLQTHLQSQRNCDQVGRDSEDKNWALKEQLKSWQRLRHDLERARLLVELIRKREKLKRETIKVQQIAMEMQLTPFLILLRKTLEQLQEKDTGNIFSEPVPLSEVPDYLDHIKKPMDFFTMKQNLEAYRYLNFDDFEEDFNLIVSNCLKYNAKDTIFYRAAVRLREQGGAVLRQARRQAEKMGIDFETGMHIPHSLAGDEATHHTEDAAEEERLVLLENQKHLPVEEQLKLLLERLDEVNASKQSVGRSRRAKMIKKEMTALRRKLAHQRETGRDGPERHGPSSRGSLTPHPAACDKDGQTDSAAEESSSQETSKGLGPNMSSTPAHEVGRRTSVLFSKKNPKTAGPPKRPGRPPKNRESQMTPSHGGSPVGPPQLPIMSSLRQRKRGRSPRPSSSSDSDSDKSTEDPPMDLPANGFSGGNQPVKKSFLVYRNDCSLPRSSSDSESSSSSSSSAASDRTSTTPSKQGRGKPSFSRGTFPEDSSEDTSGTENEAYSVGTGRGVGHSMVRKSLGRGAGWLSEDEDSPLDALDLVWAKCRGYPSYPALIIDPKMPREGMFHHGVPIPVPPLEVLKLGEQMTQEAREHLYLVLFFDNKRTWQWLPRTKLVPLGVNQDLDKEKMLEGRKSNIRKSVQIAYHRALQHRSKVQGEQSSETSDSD

[2] = target: Fibroblast growth factor receptor 2 (Homo sapiens) (UniProt P21802); conditions: Compound concentration 20.0 uM
Fibroblast growth factor receptor 2 (Homo sapiens), sequence (P21802 22-821 limits assumed): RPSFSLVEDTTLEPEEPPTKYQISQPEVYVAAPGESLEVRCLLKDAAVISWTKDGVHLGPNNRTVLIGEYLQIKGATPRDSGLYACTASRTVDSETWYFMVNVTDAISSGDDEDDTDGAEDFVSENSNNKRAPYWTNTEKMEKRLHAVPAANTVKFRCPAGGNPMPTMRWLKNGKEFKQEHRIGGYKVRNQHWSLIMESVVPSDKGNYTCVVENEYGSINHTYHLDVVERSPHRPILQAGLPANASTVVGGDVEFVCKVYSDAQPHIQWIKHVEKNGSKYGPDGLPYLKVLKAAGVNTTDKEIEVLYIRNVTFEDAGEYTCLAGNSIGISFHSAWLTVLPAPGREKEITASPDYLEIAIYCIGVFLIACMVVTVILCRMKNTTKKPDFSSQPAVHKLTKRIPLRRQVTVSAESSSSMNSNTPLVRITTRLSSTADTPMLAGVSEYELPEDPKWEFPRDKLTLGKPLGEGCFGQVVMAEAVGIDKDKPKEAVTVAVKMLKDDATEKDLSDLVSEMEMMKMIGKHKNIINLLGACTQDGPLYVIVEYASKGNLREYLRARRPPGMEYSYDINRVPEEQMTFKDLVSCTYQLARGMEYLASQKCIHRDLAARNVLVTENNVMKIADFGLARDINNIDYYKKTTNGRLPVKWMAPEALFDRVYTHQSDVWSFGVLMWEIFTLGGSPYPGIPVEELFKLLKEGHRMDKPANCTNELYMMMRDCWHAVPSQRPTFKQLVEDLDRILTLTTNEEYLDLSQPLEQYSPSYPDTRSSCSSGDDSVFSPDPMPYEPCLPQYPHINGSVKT

SMILES | ΔTm [1] | ΔTm [2]
O=C(NCc1ccc(F)cc1)C1CCN(S(=O)(=O)c2cc(Cl)cc(Cl)c2)CC1 | 2.64 °C | 0.75 °C
COc1ccc(N(C(=O)Oc2c(C)cccc2C)c2ccnc(Nc3ccc(N4CCN(C)CC4)cc3)n2)c(OC)c1 | -1.1 °C | 4.44 °C
CC1(C)CC[C@]2(C(=O)O)CC[C@]3(C)C(=CC[C@@H]4[C@@]5(C)C=C(O)C(=O)C(C)(C)[C@@H]5CC[C@]43C)[C@@H]2C1 | 2.32 °C | 0 °C
Cn1ncnc1[C@H]1C2=c3c(cc(F)cc3=N[C@@H]1c1ccc(F)cc1)C(=O)NN2 | 3.07 °C | 0.09 °C
COC(=O)C[C@@H]1N=C(c2ccc(Cl)cc2)c2c(sc(C)c2C)-n2c(C)nnc21 | -0.95 °C | 0.53 °C
CC(=O)N[C@@H](CCCCNC(=O)CSCCNC(=O)CCNC(=O)[C@H](O)C(C)(C)COP(=O)(O)OP(=O)(O)OC[C@H]1O[C@@H](n2cnc3c(N)ncnc32)[C@H](O)[C@@H]1OP(=O)(O)O)C(N)=O | 1.95 °C | 0.51 °C
O=c1[nH]c(CS[C@H]2CC[C@H](O)CC2)nc2cc(OCC3CC3)cc(F)c12 | -0.24 °C | -0.27 °C
Fc1ccc(CNc2ncnc3ccc(F)cc23)cc1 | 1.26 °C | -0.12 °C
Cn1nc(C(C)(C)C)cc1C(=O)NC(Cc1cccc(Cl)c1)C(=O)NCC#N (stereo not drawn) | 2.3 °C | 0.05 °C
O=C(NC(Cc1ccccc1)C(=O)NC(Cc1ccccc1)C(=O)CF)OCc1ccccc1 (stereo not drawn) (Cbz-Phe-Phe-CH2F; configuration not given here) | 1.77 °C | 0.39 °C
CCCN1CCN(c2ccc(C(=O)NC3(C(=O)NCC#N)CCCCC3)cc2)CC1 | -1.09 °C | 0.76 °C
CNc1ncc2cc(-c3cc(NC(=O)NCCC(C)(C)C)c(F)cc3C)c(C)nc2n1 | -0.16 °C | 5.58 °C
CCc1c(C#N)c(S[C@@H](C(N)=O)c2ccccc2)nc(N(C)C)c1C#N | 2.36 °C | -0.11 °C
NC(=O)C1CCCc2c1[nH]c1ccc(Cl)cc21 (stereo not drawn) | 2.61 °C | 0.23 °C
Cn1c(=O)cc(N2CCC[C@@H](N)C2)n(Cc2ccccc2C#N)c1=O | 2.35 °C | 0.81 °C
COc1ccc(N2CCN(C(=O)c3cc4c(s3)-c3ccccc3S(=O)(=O)C4)CC2)cc1 | 0 °C | 0.24 °C
C#CCNC(=O)[C@H](CO)NC(=O)[C@H](CCCCN(CC)CC)NC(=O)[C@@H](NC(=O)[C@@H](NC(=O)[C@H](Cc1ccc(O)c(Cl)c1)NC(=O)c1cc(Cl)cc(Cl)c1)C1CCCC1)[C@@H](C)CC ({Benzoyl(3,5-Cl2)}-[Tyr(3-Cl)][Gly(cPent)]I[Lys(Et2)]S-{NH(propargyl)}) | 1.15 °C | -1.31 °C
CNC[C@@H](O)COc1ccc(Cl)c(-c2nc(-c3c(C)noc3C)c(C)c(N3CC4(CCN(C(=O)OC)CC4)C3)n2)c1 | -1.65 °C | 0.49 °C
CC(C)c1cc(C(=O)N2CC[C@@H](NC(=O)C3CC3)C2)[nH]n1 | -0.47 °C | -0.51 °C
CC(=O)N[C@@H](CC(C)C)C(=O)N[C@@H](CCC(=O)O)C(=O)N[C@@H](Cc1cnc[nH]1)C(=O)N[C@H](C=O)CC(=O)O (Ac-LEHD-aldehyde) | -1.22 °C | 0.53 °C

SMILES | ΔTm [1] | ΔTm [2]
Cc1nn2c(nc(O)c3cccnc32)c1C#N | 0.03 °C | -0.24 °C
CN(C)Cc1ccc(-c2nc3cccc4c3n2CCNC4=O)cc1 | 0.88 °C | 0.73 °C
C=C(C)[C@@H](CC=C(C)C)C[C@@]12C[C@@H](CC=C(C)C)C(C)(C)[C@@](CC=C(C)C)(C(=O)C(C(=O)c3ccc(O)c(O)c3)=C1O)C2=O | -4.72 °C | -5.95 °C
Cc1cc(OCc2nnc(SC3CCCC3)n2-c2cccnc2)ccc1-c1ccc(S(C)(=O)=O)cc1 | -5.44 °C | -3.4 °C
N=C(N)N/N=C/c1cccc(Cl)c1Cl | -0.71 °C | 0.87 °C
Cc1c(F)c(N)cc(C(=O)Nc2cc(-n3cc(C(=O)NCCCN4CCOCC4)nn3)ccc2N2CCN(C)CC2)c1Cl | -0.29 °C | 0.03 °C
CC(C)c1c(-c2ccccc2)[nH]c2c(C#N)cnn2c1=O | 1.31 °C | -0.06 °C
COc1ccc(C2C(C#N)=C(N)OC3=C2C(=O)CC(c2cccc4ccccc24)C3)cc1 (stereo not drawn) | 0.11 °C | -0.92 °C
O=C(NCCCn1ccnc1)c1cc2nc(-c3ccccc3)cc(-c3ccccc3)n2n1 | -1.26 °C | 0.5 °C
C[C@@H]1CN(c2ncc(Cl)c(Nc3ccc4c(c3)n(CCC(C)(C)O)c(=O)n4C)n2)C[C@H](C)C1(F)F | -5.71 °C | -3.16 °C
Cc1nc2ccccn2c1C(=O)CN1CCN(c2ccc(F)cn2)CC1 | 0.49 °C | -0.08 °C
Nc1c[nH]c(=O)c2cc(-c3ccccc3)sc12 | -1.11 °C | 0.44 °C
O=C(CCCCCCNC(=O)c1cnc(N(c2ccccc2)c2ccccc2Cl)nc1)NO | -1.49 °C | 0.65 °C
Cc1nn(CC(F)(F)F)cc1Nc1ncc(Br)c(NCc2ccc(S(N)(=O)=O)cc2)n1 | -0.36 °C | 2.95 °C
CC(=O)N[C@@H](CC(C)C)C(=O)N[C@@H](CCC(=O)O)C(=O)N[C@@H](Cc1cnc[nH]1)C(=O)N[C@@H](CC(=O)O)C(=O)CCl (Ac-LEHD-CH2Cl) | -1.13 °C | 0.65 °C
Nc1ccccc1NC(=O)c1ccc(CNC(=O)OCc2cccnc2)cc1 | -0.57 °C | 0.41 °C
CCC[C@@H]1CNCc2c1[nH]c(=O)c(C#N)c2N1CCC2(CC1)CC2 | -1.25 °C | 0.64 °C
CCCOc1cccc(Oc2cc3c(cc2NS(=O)(=O)c2cccc(C(=O)NCCOCCOCCOCC(=O)N[C@H](C(=O)N4C[C@H](O)C[C@H]4C(=O)NCc4ccc(-c5scnc5C)cc4)C(C)(C)C)c2)n(C)c(=O)n3C)c1 | 1.17 °C | -3.12 °C
O=[N+]([O-])c1cc(O)c(O)c([N+](=O)[O-])c1 | 2.24 °C | 0.52 °C
C[C@H](NC(=O)[C@H](Cc1ccccc1)NC(=O)OCc1ccccc1)C(=O)CF | -1.31 °C | 0.14 °C

SMILES | ΔTm [1] | ΔTm [2]
Nc1cc2c3c(c1)C(c1ccccc1)=N[C@@H](NC(=O)c1cccnc1)C(=O)N3CC2 | 0.71 °C | 0.08 °C
C[C@H](Nc1cc(Cl)nc2c1cnn2[C@@H]1O[C@H](COP(=O)(O)CP(=O)(O)O)[C@@H](O)[C@H]1O)c1ccccc1F | -1.02 °C | 0.2 °C
CC(=O)OCCN1C(=O)c2c(C)nc3ccc(S(=O)(=O)N4CCOCC4)cc3c2C1=O | -0.89 °C | 0.68 °C
CNC(=O)N1CCc2c(c(N3CCCc4cc(-c5cnn(C)c5)c(C(F)F)cc43)nn2C2CCOCC2)C1 | -0.21 °C | -0.44 °C
CC(C)c1cc(C(=O)N2Cc3ccc(CN4CCN(C)CC4)cc3C2)c(O)cc1O | -1.35 °C | 0.44 °C
Cc1noc2c1-c1ccccc1C(c1ccc(Cl)cc1)=N[C@H]2CC(N)=O | 2.09 °C | -0.03 °C
Nc1ccc(-c2cccs2)cc1NC(=O)c1ccc(NC=O)cc1 | 2.98 °C | 0.02 °C
N#C[C@@H]1C[C@@H]2C[C@@H]2N1C(=O)[C@@H](N)C12CC3CC(CC(O)(C3)C1)C2 | -0.63 °C | 0.29 °C
CNCc1ccc(-c2[nH]c3cc(F)cc4c3c2CCNC4=O)cc1 | 3.14 °C | -0.11 °C
CN(CCC(Oc1ccc(-c2ccccc2)cc1)c1ccc(F)cc1)CC(=O)O (stereo not drawn) | 1.93 °C | 0.44 °C
CCN(CC)c1ccc(C2=NNC(=O)C[C@H]2C)cc1[N+](=O)[O-] | 1.09 °C | 0.2 °C
CCCCCCNC(=O)n1cc(F)c(=O)[nH]c1=O | 0.95 °C | 0.03 °C
O=C1Cc2cc(C(=O)N[C@@H]3C[C@H]4CC[C@@H](C3)N4S(=O)(=O)CC3CCN(CCCC(F)(F)F)CC3)c(Cl)cc2N1 | -0.66 °C | -0.16 °C
CC(C)Oc1ccc2c(=O)[nH]c3sccc3c2c1 | -0.93 °C | 0.02 °C
O=C(C1CC1)N1CC[C@@H](Cc2n[nH]c(=O)n2-c2ccc(-c3ccc4occc4c3)cc2)C1 | -1.32 °C and 0.92 °C | 0.63 °C and -0.68 °C
C[C@]12CCCN1CC1=NNC(=O)c3cc(F)cc4[nH]c2c1c34 | -1.02 °C | 0.9 °C
CC(C)Cc1nn(C)c(=O)c2c(SCCCO)n(Cc3cccc4ccccc34)cc12 | -2.75 °C and -3.63 °C | 0.03 °C and -0.58 °C
Cc1ccc2c(c1)nc(/C=C/c1cccc3cccnc13)n2-c1cccc(OCCCN2CCN(C)CC2)c1 | 0.16 °C | 0.24 °C
CCCCCCNC(=O)n1cc(Cl)c(=O)n(C(=O)OCC(C)C)c1=O | 0.68 °C | 0.1 °C

— ChEMBL document CHEMBL5724796, “Tm Shift (DSF) assay results for EUbOPEN Chemogenomics Library” (2024)
